Test results published in patent US20230381160A1, “PROPHYLATIC USE OF CALCIUM CHANNEL BLOCKERS IN TUBERCULOSIS” (priority 2020, published 2023).

Test system: active TB
Assay: Nested case-control study (NHIRD): drug use and risk of incident active TB
Assay type: in vivo, human
Settings: incidence of active TB
From the text: National Health Insurance (NHI) program of Taiwan is a compulsory single-payer system that enrolls approximately 24 million residents with 99.8% coverage. We conducted a nested case-control study using the National Health Insurance Research Database (NHIRD) approved from the institutional review board of National Taiwan University Hospital. The NHIRD used a systematic approach to randomly select one million people from the enrollees of NHI, which represents the age, sex, and geographical region distribution of the Taiwanese population. The computerized NHIRD includes information on patient demographics, outpatient and inpatient electronic claim records, individual diagnoses by ICD-9 CM codes, operations, and prescribed medications. Detailed information regarding the name of the prescribed drugs, route of administration, quantity, and number of days of supply are also available. The study was approved by the Institutional Review Board at National Taiwan University Hospital (No. 201311043RINB). Patients' consent was waived because this is an electronic database study using anonymous subjects.
The study cohort consisted of all adult patients (≥18 years old) from the NHIRD that were followed longitudinally between January 1999 and December 2011. We used 1999 as pre-enrollment periods. TB was defined as those with any code for TB according to the ICD-9 CM codes (ICD-9 CM codes: 010-018, including all subcategories). All participants in the study cohort were followed and contributed person-time from the first day of 2000 until the earliest of the following end points: first diagnosis of active TB, termination of health insurance coverage, death, or the end of the study period, whichever came first. The year before the year of TB diagnosis was used for the evaluation of the drug exposure. […]
We assessed the covariates from the cohort entry to the year before the index date. Covariates assessed included: demographics, pre-existing chronic diseases, medications used, and proxy indicators for the lifestyle such as alcohol consumption or smoking related illness, and obesity or malnutrition. […]

In the case of COC(=O)C1=C(C)NC(C)=C(C(=O)OC)C1c1ccccc1[N+](=O)[O-] [Nifedipine, nifedipine], the “IR % (case/person-years)” value (average daily dose 10 mg) is reported as 0% (0/694), the “IR % (case/person-years)” value (average daily dose 20 mg) is reported as 0.34% (6/1,755) and the “IR % (case/person-years)” value (average daily dose 30 mg) is reported as 0.40% (6/1,499).
